Measured values: patent US6303789A, “Benzamides with tetrahydrofuranyloxy substitutents as phosphodiesterase 4 inhibitors” (Byk Gulden Lomberg Chemische Fabrik GmbH, priority 1998, dated 2001)

System: PDE4
Experiment: Inhibition of PDE4 activity (method of Bauer and Schwabe, adapted to microtiter plates)
Assay type: biochemical
Details: inhibitory concentration as -log IC50 (mol/l)

Row | SMILES | Inhibition of the PDE4 activity, -log IC50
1 | COc1ccc(C(=O)Nc2c(Cl)cncc2Cl)cc1OC1COCC1O (stereo not shown) [Compound 6, N-(3,5-Dichloropyridin-4-yl)-3-(4-hydroxytetrahydrofuran-3-yloxy)-4-methoxybenzamide] | 8.02
2 | COc1ccc(C(=O)Nc2c(Cl)cncc2Cl)cc1OC1COCC1OCc1ccccc1 (stereo not shown) [Compound 3, N-(3,5-Dichloropyridin-4-yl)-3-(4-benzyloxytetrahydrofuran-3-yloxy)-4-methoxybenzamide] | 8.70
3 | COc1ccc(C(=O)Nc2c(Cl)cncc2Cl)cc1OC1COCC1OCSC (stereo not shown) [Compound 7, N-(3,5-Dichloropyridin-4-yl)-4-methoxy-3-(4-methylthiomethyloxytetrahydrofuran-3-yloxy)-benzamide] | 8.54
4 | COc1ccc(C(=O)Nc2c(Cl)cncc2Cl)c2c1OC1(COCC1OCc1ccccc1)C2 (stereo not shown) [Compound 5, N-(3,5-Dichloropyridin-4-yl)-2,3-dihydro-4'-benzyloxy-7-methoxybenzofuran-2-spiro-3'-tetrahydrofuran-4-carboxamide] | 8.58
5 | CCOC1COCC1Oc1cc(C(=O)Nc2c(Cl)cncc2Cl)ccc1OC (stereo not shown) [Compound 2, N-(3,5-Dichloropyridin-4-yl)-3-(4-ethoxytetrahydrofuran-3-yloxy)-4-methoxybenzamide] | 8.25
6 | COc1ccc(C(=O)Nc2c(Cl)cncc2Cl)c2c1OC1(COCC1OC)C2 (stereo not shown) [Compound 4, N-(3,5-Dichloropyridin-4-yl)-2,3-dihydro-4',7-dimethoxybenzofuran-2-spiro-3'-tetrahydro-furan-4-carboxamide] | 8.11
7 | COc1ccc(C(=O)Nc2c(Cl)cncc2Cl)cc1OC1COCC1OC (stereo not shown) [Compound 1, N-(3,5-Dichloropyridin-4-yl)-4-methoxy-3-(4-methoxytetrahydrofuran-3-yloxy)benzamide] | 8.24
